IC50 data for four molecules are collected here from ChEMBL document CHEMBL1255168, “1-Aryl-3-(1-acylpiperidin-4-yl)urea inhibitors of human and murine soluble epoxide hydrolase: structure-activity relationships, pharmacokinetics, and reduction of inflammatory pain” (J Med Chem, 2010).

Assay [1] deals with T1, Bifunctional epoxide hydrolase 2 (Homo sapiens, UniProt P34913).
T1 sequence (P34913 whole entry): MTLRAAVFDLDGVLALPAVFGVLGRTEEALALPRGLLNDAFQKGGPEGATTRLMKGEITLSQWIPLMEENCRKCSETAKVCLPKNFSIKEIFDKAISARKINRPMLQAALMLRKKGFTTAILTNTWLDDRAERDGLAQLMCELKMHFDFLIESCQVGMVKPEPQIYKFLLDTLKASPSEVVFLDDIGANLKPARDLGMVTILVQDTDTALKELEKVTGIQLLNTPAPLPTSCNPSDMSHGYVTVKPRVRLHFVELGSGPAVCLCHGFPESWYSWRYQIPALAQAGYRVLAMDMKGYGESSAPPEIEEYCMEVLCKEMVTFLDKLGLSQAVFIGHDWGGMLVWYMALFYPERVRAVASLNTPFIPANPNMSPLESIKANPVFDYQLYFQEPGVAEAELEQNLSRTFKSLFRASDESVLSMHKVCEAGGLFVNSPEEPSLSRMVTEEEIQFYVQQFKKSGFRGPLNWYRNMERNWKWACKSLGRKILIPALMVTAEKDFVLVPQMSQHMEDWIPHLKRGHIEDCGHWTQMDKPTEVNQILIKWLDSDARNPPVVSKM
Description: Inhibition of human recombinant soluble epoxide hydrolase by fluorescence assay

The target of assay [2] is T2, Bifunctional epoxide hydrolase 2 (Mus musculus, UniProt P34914).
T2 sequence (P34914 whole entry): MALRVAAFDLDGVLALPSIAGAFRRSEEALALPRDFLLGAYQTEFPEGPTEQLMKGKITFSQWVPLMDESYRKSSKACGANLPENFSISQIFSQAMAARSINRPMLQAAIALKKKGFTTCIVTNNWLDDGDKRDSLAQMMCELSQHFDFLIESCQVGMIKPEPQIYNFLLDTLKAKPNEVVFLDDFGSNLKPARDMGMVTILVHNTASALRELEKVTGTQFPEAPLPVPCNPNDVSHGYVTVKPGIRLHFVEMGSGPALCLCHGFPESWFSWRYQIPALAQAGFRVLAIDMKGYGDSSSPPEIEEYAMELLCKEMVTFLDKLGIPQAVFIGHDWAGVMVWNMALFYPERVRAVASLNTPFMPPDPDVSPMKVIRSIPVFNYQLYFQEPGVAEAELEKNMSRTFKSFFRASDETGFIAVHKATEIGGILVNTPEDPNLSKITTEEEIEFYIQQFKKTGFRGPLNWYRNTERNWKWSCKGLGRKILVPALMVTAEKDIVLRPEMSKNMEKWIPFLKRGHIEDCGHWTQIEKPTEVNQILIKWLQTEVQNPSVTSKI
Description: Inhibition of mouse recombinant soluble epoxide hydrolase by fluorescence assay

Structures are written as SMILES.

On to `CCC(=O)N1CCC(NC(=O)Nc2cc(OC)c(OC)c(OC)c2)CC1`, for which the IC50 – broadly, the concentration that gives 50% inhibition – in assay [1] was over 5000 nM.
Take `O=C(Nc1ccc(OC(F)(F)F)cc1)NC1CCN(C(=O)CN2CCN(Cc3ccccc3)CC2)CC1`: the IC50 is 1.5 nM in assay [1] and 18 nM in assay [2].
The corresponding values for `CCC(=O)N1CCC(NC(=O)Nc2ccc3c(c2)OCO3)CC1` are 61 nM and 100 nM.
As to `CCC(=O)N1CCC(NC(=O)Nc2ccc(C(=O)OC)cc2)CC1`, the IC50 came to 140 nM in assay [1] and 64 nM in assay [2].
